Reference: ChEMBL document CHEMBL1122271, “Folate analogues. 22. Synthesis and biological evaluation of two analogues of dihydrofolic acid possessing a 7,8-dihydro-8-oxapterin ring system” (J Med Chem, 1983)
In brackets after ≈: the same amount, converted by molar mass.

Columns and labels:
Format in all cases: functional, organism-based
[1] = test system: Enterococcus faecium; assay: Compound was measured for the growth inhibition of Streptococcus faecium; details: read-out: I50
[2] = test system: Lacticaseibacillus casei; assay: Compound was measured for the growth inhibition of Lactobacillus casei up to concentration 4 ug/mL; NA means inactive
[3] = test system: Enterococcus faecium; assay: Compound was measured for the growth inhibition of S. faecium; NA means inactive

SMILES | IC50 [1] [µg/mL] | I50 [2] | I50 [3]
NC1=NC(=O)C2N=C(Cc3ccc(C(=O)NC(CCC(=O)O)C(=O)O)cc3)COC2N1 (centres undefined) | 1.4 (≈ 3.25 µM) | Not Active | 
NC1=NC(=O)C2N=C(c3ccc(C(=O)NC(CCC(=O)O)C(=O)O)cc3)COC2N1 (centres undefined) |  | Not Active | Not Active
